How the values were obtained:
[1] = tested on: ST2 cells (mouse bone marrow-derived MSCs); settings: 10 mM, 12 hours, growth factor reduced Matrigel
Protocol: Then, the upper part of each insert was coated with 50 μL of growth factor reduced Matrigel (BD Bioscience). […] The lower chamber membrane was confirmed using a Nikon ECLIPSE TS 100 microscope.

[2] = tested on: human bone marrow-derived MSCs (hMSCs); settings: concentration series, serum-free DMEM
Excerpt: The human bone marrow-derived MSCs (hMSCs) were obtained from Lonza (Basel, Switzerland) and cultured in MSCGM medium (Lonza). Cells which underwent 3 to 6 subcultures were used in the experiment.

[3] = tested on: mouse bone marrow-derived MSCs; settings: 200 mM in drinking water for 7 days, vs drinking water without sodium acetate
Protocol: Each C57BL/6 mouse was fed drinking water with or without sodium acetate (200 mM) for 7 days, and femurs were collected from each mouse. The collected femurs were crushed using a mortar, treated with 0.2% type I collagenase (Worthington), and thereby the bone marrow cells attached to the bones were collected.

IL-10 = settings: 10 mM, 48 hours, ST2 cells, vs untreated control (CON)
Protocol: (§1) ST2 cells (3.8×10^5 cells) were added to a 6-well plate under the condition of normal growth medium and cultured overnight. The medium was replaced with low-glucose DMEM medium without FBS and the cells were cultured for 18 hours. Then, the cells were treated with 10 mM sodium acetate (C2) for 48 hours or not treated (CON).
(§2) A cell lysate was obtained from the sample, and total RNA was isolated using TRIzol. The cDNA was synthesized from the total RNA, and the expression levels of mRNAs of VEGF and IL-10 in cells were measured by real-time PCR using primers for VEGF and IL-10 and SYBR green PCR Master Mix (fluorescent material).

VEGF = settings: 10 mM, 48 hours, ST2 cells, vs untreated control (CON)
Protocol: as §1, §2

[4] = tested on: ST2 cells (mouse bone marrow-derived MSCs); settings: 0 mM to 10 mM in lower chamber, 12 hours
Protocol: The cells were maintained in RPMI1640 medium (Invitrogen) containing 10% FBS, 1% penicillin, and streptomycin (Invitrogen). The cells were cultured to a confluence of 80%, recovered with 0.25% trypsin/EDTA (Invitrogen), and subcultured in a ratio of 1:3 to 1:4. The cells which underwent 5 to 8 subcultures were used in the experiment. The cells were maintained in a 37° C. incubator containing 5% CO2.
Millicell culture plate inserts with a pore size of 8 μm (EMD Millipore) were coated with type I collagen (0.5 μg/mL). The ST2 cells (2.5×10^4 cells) were suspended in normal growth medium and added into an upper chamber. After culturing the cells for 5 to 6 hours, the medium was replaced with DMEM medium containing 2% FBS and 1% penicillin and streptomycin.
After culturing for an additional 12 hours, each insert was fixed with 4% formaldehyde in the presence of PBS at room temperature for 10 minutes. The ST2 cells were stained with a hematoxylin solution for 30 minutes, and the cells remaining on the upper chamber membrane were removed using cotton swabs. The lower chamber membrane was confirmed using the Nikon ECLIPSE TS 100 microscope. The number of cells in each cell image was counted using Adobe Photoshop CS6.

[5] = tested on: ST2 cells (mouse bone marrow-derived MSCs); settings: 10 mM, 36 hours treatment, 10 days culture, colonies 1 mm or greater
Protocol: Then, the cells were added to a plate at a concentration of 5.7×10^4 cells/well and cultured under conditions of 37° C. and 5% CO2 for 10 days. The plate was then stained with a 1% crystal violet staining solution (Sigma-Aldrich) and the number of colonies was counted under a stereomicroscope. In particular, cell populations with a diameter of 1 mm or greater were considered as colonies.

[6] = tested on: hematopoietic progenitor cells (Lin-/Sca1+/c-Kit+, LSK); settings: sodium acetate 4 nmol/kg subcutaneous, blood collected after 10 minutes, vs normal control group
Protocol: Populations of circulating hematopoietic progenitor cells (HPCs), lineage negative, Sca-1 positive, and c-Kit positive (Lin^−/Sca1^+/c-Kit^+, LSK) cells were analyzed by a flow cytometry analyzer.
Monocytes were separated by Ficoll centrifugation. Then, hematopoietic progenitor cells were examined using anti-mouse CD4-FITC (Biolegend, San Diego, Calif.), anti-mouse CD49b-FITC (Biolegend), anti-mouse CD11b-FITC (Biolegend), anti-mouse B220-FITC (Biolegend), anti-mouse Gr-1-FITC (Biolegend), anti-mouse CD8-FITC (Biolegend), anti-mouse Ly-6A/E (Sca-1)-PE (Biolegend), and anti-mouse CD117 (c-Kit)-APC (Biolegend).

[7] = tested on: human bone marrow-derived MSCs (hMSCs); settings: 10 mM, two subcultures, 14 days culture, colonies 3 mm or greater
Protocol: Then, the cells were added at a concentration of 5×10^2 cells/well (10 cm dish) to low-glucose DMEM (GE Healthcare Life Sciences) containing 10% FBS, 1% penicillin and streptomycin (Invitrogen), and 1% L-glutamine in a plate, and the plate was incubated under conditions of 37° C. and 5% CO2 for 14 days. The plate was then fixed with 100% methanol, stained with a 1% crystal violet staining solution (Sigma-Aldrich), and the number of colonies was counted under a stereomicroscope. In particular, cell populations of human bone marrow-derived MSCs with a diameter of 3 mm or greater were considered as colonies.

Structure (SMILES)	invasion (number of cells through Matrigel) [1]	mobility of human bone marrow-derived MSCs (hMSCs) [2]	increase in frequency of cell population of mouse bone marrow-derived MSCs (CFU-F) [3]	increase in size of cell population of mouse bone marrow-derived MSCs (CFU-F) [3]	increase of expression of IL-10 mRNA (IL-10)	increase of expression of VEGF mRNA (VEGF)	mobility of ST2 cells (number of migrated cells) [4]	colony-forming ability (CFU-F) of mouse bone marrow-derived MSCs [5]	hematopoietic progenitor cells (LSK) in the peripheral blood [6]	enhancement of colony-forming ability (CFU-F) of hMSCs [7]
CC(=O)[O-].[Na+] [sodium acetate]	significantly increased	increased in a manner dependent on the concentration	about 2 fold	about 2 fold	about 2.4 fold	about 2.5 fold	increase in a manner dependent on the concentration	significantly increased	enhancement of mobility from the bone marrow to the peripheral blood	about 5 fold
CCCC(=O)[O-].[Na+] [sodium butyrate]							increase in a manner dependent on the concentrations			
CCC(=O)[O-].[Na+] [sodium propionate]							increase in a manner dependent on the concentrations	enhancement of a CFU-F-forming ability		

From patent US20190167725A1, “COMPOSITION AND METHOD FOR IMPROVING EFFICACY OF STEM CELLS” (University-Industry Cooperation Group of Kyung Hee …, priority 2016, published 2019)
